Data published in patent US9670227B2, “Thienopyrimidine derivatives, a process for their preparation and pharmaceutical compositions containing them” (LES LABORATOIRES SERVIER, priority 2013, dated 2017).
Like-named read-outs stand apart in the source and are kept apart here. Blank lines part the entries; values can stand above or below the compound they belong to.

Target: Mcl-1 protein (UniProtKB primary accession number: Q07820) (Homo sapiens, UniProt Q07820)
Test: Inhibition of Mcl-1 by fluorescence polarisation, Method 1
Format: binding
Conditions: read-out: IC50 (M) Mcl-1 FP
Protocol: The relative binding potency of each compound was determined via Fluorescence Polarisation (FP).
An 11 point serial dilution of each compound was prepared in DMSO and 2 μl transferred into flat bottomed, low binding, 384-well plate (final DMSO concentration 5%). 38 μl of buffer (10 mM 4-(2-hydroxyethyl)-1-piperazineethanesulfonic acid [HEPES], 150 mM NaCl, 0.05% Tween 20, pH 7.4), containing the Fluorescein labelled ligand (final concentration 1 nM) and Mcl-1 protein (final concentration 5 nM) was then added.

[1] = fluorescence polarisation test, Method 2 values are underlined in the patent (underlining not visible here)
[2] = fluorescence polarisation, Method 1, or Method 2
[3] = fluorescence polarisation test, Method 1, or Method 2 where the value is underlined (underlining not visible)

Mcl-1 protein, sequence (Q07820 whole entry): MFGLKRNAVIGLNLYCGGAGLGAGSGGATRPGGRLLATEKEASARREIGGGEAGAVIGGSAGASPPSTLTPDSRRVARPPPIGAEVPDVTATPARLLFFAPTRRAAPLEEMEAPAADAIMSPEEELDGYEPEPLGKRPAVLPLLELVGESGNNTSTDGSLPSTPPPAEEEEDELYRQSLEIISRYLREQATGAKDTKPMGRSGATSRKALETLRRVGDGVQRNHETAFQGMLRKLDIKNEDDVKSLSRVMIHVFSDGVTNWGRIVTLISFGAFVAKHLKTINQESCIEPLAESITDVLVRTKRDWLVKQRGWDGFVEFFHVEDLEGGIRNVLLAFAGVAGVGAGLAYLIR

Compound: Cc1c(-c2c(-c3ccc(F)o3)sc3ncnc(OC(Cc4ccccc4OCC(F)(F)F)C(=O)O)c23)ccc(OCCN2CCN(C)CC2)c1Cl [Example 158, (2R)-2-{[(5Sa)-5-{3-chloro-2-methyl-4-[2-(4-methylpiperazin-1-yl)ethoxy]phenyl}-6-(5-fluorofuran-2-yl)thieno[2,3-d]pyrimidin-4-yl]oxy}-3-[2-(2,2,2-trifluoroethoxy)phenyl]propanoic acid]
IC50 [1]: 4.6e-09 M

Compound: CCc1sc2ncnc(OC(Cc3ccccc3)C(=O)O)c2c1-c1cc(Br)c(O)c(Cl)c1C [Example 427, (2R)-2-{[(5Sa)-5-(5-bromo-3-chloro-4-hydroxy-2-methylphenyl)-6-ethylthieno[2,3-d]pyrimidin-4-yl]oxy}-3-phenylpropanoic acid]
IC50 [2]: 4.7e-09 M

Compound: Cc1c(-c2c(-c3ccc(F)o3)sc3ncnc(OC(Cc4ccccc4OCc4ccccn4)C(=O)O)c23)ccc(OCCN2CCN(C)CC2)c1Cl (single isomer, unassigned) [Example 166]
IC50 [1]: 6e-09 M

Compound: Cc1c(-c2c(-c3ccc(F)cc3)sc3ncnc(OC(Cc4ccccc4OCc4ccnn4C(C)(C)C)C(=O)O)c23)ccc(OCCN2CCN(C)CC2)c1Cl [Example 70, (2R)-3-{2-[(1-tert-butyl-1H-pyrazol-5-yl)methoxy]phenyl}-2-{[(5Sa)-5-{3-chloro-2-methyl-4-[2-(4-methylpiperazin-1-yl)ethoxy]phenyl}-6-(4-fluorophenyl)thieno[2,3-d]pyrimidin-4-yl]oxy}propanoic acid]
IC50 [1]: 1.6e-09 M

Compound: Cc1sccc1-c1sc2ncnc(OC(Cc3ccccc3)C(=O)O)c2c1-c1ccc(OCCN2CCN(C)CC2)c(Cl)c1C [Example 511, (2R)-2-{[(5Sa)-5-{3-chloro-2-methyl-4-[2-(4-methylpiperazin-1-yl)ethoxy]phenyl}-6-(2-methylthiophen-3-yl)thieno[2,3-d]pyrimidin-4-yl]oxy}-3-phenylpropanoic acid]
IC50 [2]: 4.8e-07 M

Compound: CCc1sc2ncnc(OC(Cc3ccccc3)C(=O)O)c2c1-c1cccc(O)c1C [Example 452, (2R)-2-{[6-ethyl-(5Sa)-5-(3-hydroxy-2-methylphenyl)thieno[2,3-d]pyrimidin-4-yl]oxy}-3-phenylpropanoic acid and (2S)-2-{[6-ethyl-(5Ra)-5-(3-hydroxy-2-methylphenyl)thieno[2,3-d]pyrimidin-4-yl]oxy}-3-phenylpropanoic acid]
IC50 [2]: 3e-07 M

Compound: Cc1c(-c2c(-c3ccc(F)o3)sc3ncnc(OC(Cc4ccccc4OCc4cnccn4)C(=O)O)c23)ccc(OCCN2CCN(C)CC2)c1Cl [Example 189, (2R)-2-{[(5Sa)-5-{3-chloro-2-methyl-4-[2-(4-methylpiperazin-1-yl)ethoxy]phenyl}-6-(5-fluorofuran-2-yl)thieno[2,3-d]pyrimidin-4-yl]oxy}-3-[2-(pyrazin-2-ylmethoxy)phenyl]propanoic acid]
IC50 [1]: 5.5e-09 M

Compound: Cc1c(-c2c(-c3ccc(F)cc3)sc3ncnc(OC(Cc4ccccc4OCc4ccnc(-c5ccncc5)n4)C(=O)O)c23)ccc(OCCN2CCN(C)CC2)c1Cl [Example 34, (2R)-2-{[(5Sa)-5-{3-chloro-2-methyl-4-[2-(4-methylpiperazin-1-yl)ethoxy]phenyl}-6-(4-fluorophenyl)thieno[2,3-d]pyrimidin-4-yl]oxy}-3-(2-{[2-(pyridin-4-yl)pyrimidin-4-yl]methoxy}phenyl)propanoic acid]
IC50 [1]: 3.3e-09 M

Compound: CCc1sc2ncnc(OC(Cc3ccccc3)C(=O)O)c2c1-c1ccc(OCCN2CCN(C)CC2)cc1C [Example 416, (2R)-2-[(6-ethyl-(5Ra)-5-{2-methyl-4-[2-(4-methylpiperazin-1-yl)ethoxy]phenyl}thieno[2,3-d]pyrimidin-4-yl)oxy]-3-phenylpropanoic acid]
IC50 [2]: 7e-07 M

Compound: (2R)-2-{[(5Sa)-5-(3-chloro-2-methylphenyl)-6-ethylthieno[2,3-d]pyrimidin-4-yl]oxy}-3-phenylpropanoic acid and (2S)-2-{[(5Ra)-5-(3-chloro-2-methylphenyl)-6-ethylthieno[2,3-d]pyrimidin-4-yl]oxy}-3-phenylpropanoic acid [Example 449]
IC50 [2]: 2.8e-08 M

Second part, the compound after the results:

IC50 [2]: 2.7e-07 M
Compound: COc1ccc(-c2c(-c3ccc(F)cc3)sc3ncnc(OC(Cc4ccccc4OCCN(C)C)C(=O)O)c23)c(C)c1Cl [Example 662, (2R)-2-{[(5Sa)-5-(3-chloro-4-methoxy-2-methylphenyl)-6-(4-fluorophenyl)thieno[2,3-d]pyrimidin-4-yl]oxy}-3-{2-[2-(dimethylamino)ethoxy]phenyl}propanoic acid]

IC50 [3]: 3.82e-08 M
Compound: Cc1oc(=O)oc1COC(=O)C(Cc1ccccc1OCc1ccnn1C(C)(C)C)Oc1ncnc2sc(-c3cccc(F)c3F)c(-c3ccc(OCCN(C)C)c(Cl)c3C)c12 [Example 824, (5-methyl-2-oxo-1,3-dioxol-4-yl)methyl (2R)-3-{2-[(1-tert-butyl-1H-pyrazol-5-yl)methoxy]phenyl}-2-{[(5Sa)-5-{3-chloro-4-[2-(dimethylamino)ethoxy]-2-methylphenyl}-6-(2,3-difluorophenyl)thieno[2,3-d]pyrimidin-4-yl]oxy}propanoate]

IC50 [2]: 3.7e-08 M
Compound: COC(=N)c1ccc(-c2sc3ncnc(OC(Cc4ccccc4OC)C(=O)O)c3c2-c2ccc(OCCN3CCN(C)CC3)c(Cl)c2C)o1 [Example 580, (2R)-2-[((5Sa)-5-{3-chloro-2-methyl-4-[2-(4-methylpiperazin-1-yl)ethoxy]phenyl}-6-[5-(methoxycarbonoimidoyl)furan-2-yl]thieno[2,3-d]pyrimidin-4-yl)oxy]-3-(2-methoxyphenyl)propanoic acid]

IC50 [2]: 1.2e-08 M
Compound: COc1nccc(COc2ccccc2CC(Oc2ncnc3sc(-c4ccc(F)c(OCCN5CCOCC5)c4)c(-c4ccc(OC)c(Cl)c4C)c23)C(=O)O)n1 [Example 700, (2R)-2-{[(5Sa)-5-(3-chloro-4-methoxy-2-methylphenyl)-6-{4-fluoro-3-[2-(morpholin-4-yl)ethoxy]phenyl}thieno[2,3-d]pyrimidin-4-yl]oxy}-3-{2-[(2-methoxypyrimidin-4-yl)methoxy]phenyl}propanoic acid]

IC50 [3]: 4.8e-09 M
Compound: COc1ccccc1-c1nccc(COc2ccccc2CC(Oc2ncnc3sc(-c4ccc(F)cc4)c(-c4ccc(OC)c(Cl)c4C)c23)C(=O)O)n1 [Example 841, (2R)-2-{[(5Sa)-5-(3-chloro-4-methoxy-2-methylphenyl)-6-(4-fluorophenyl)thieno[2,3-d]pyrimidin-4-yl]oxy}-3-(2-{[2-(2-methoxyphenyl)pyrimidin-4-yl]methoxy}phenyl)propanoic acid]

IC50 [2]: 1e-06 M
Compound: CC#Cc1sc2ncnc(O[C@H](Cc3ccccc3OC)C(=O)O)c2c1-c1ccc(OCCN2CCN(C)CC2)c(F)c1C [Example 686, (2R)-2-{[(5Ra)-5-{3-fluoro-2-methyl-4-[2-(4-methylpiperazin-1-yl)ethoxy]phenyl}-6-(prop-1-yn-1-yl)thieno[2,3-d]pyrimidin-4-yl]oxy}-3-(2-methoxyphenyl)propanoic acid]

IC50 [2]: 1.2e-08 M
Compound: COc1ccccc1CC(Oc1ncnc2sc(-c3cccc(Oc4ccc(F)cc4)c3)c(-c3ccc(OCCN4CCN(C)CC4)c(Cl)c3C)c12)C(=O)O [Example 556, (2R)-2-[((5Sa)-5-{3-chloro-2-methyl-4-[2-(4-methylpiperazin-1-yl)ethoxy]phenyl}-6-[3-(4-fluorophenoxy)phenyl]thieno[2,3-d]pyrimidin-4-yl)oxy]-3-(2-methoxyphenyl)propanoic acid]
